Measurements published in patent US7056679B2, “Target specific screening and its use for identifying target binders” (Antyra, Inc., priority 2001, dated 2006).

How the values were obtained:
DGI-2 = molecular target: T1, DGI-2 (Homo sapiens, UniProt Q15004); assay: ELISA analysis of phage on DGI-2 polypeptide (specific binding); details: for DGI-2 (OD): binding to DGI-2 polypeptide (specific binding), phage ELISA units read at 405 nm; for DGI-2/LDH (OD): ratio of specific binding to non-specific binding
T1 construct: encompassed the entire DGI-2 open reading frame (ORF); His-tag of vector pIVEX2.3-MCS (inferred from the vector and from the reverse primer lacking a stop codon); made in house; host or cells: cell-free in vitro translation (Rapid Translation System RTS, Roche; E. coli lysate)
T1 sequence (Q15004 1-111): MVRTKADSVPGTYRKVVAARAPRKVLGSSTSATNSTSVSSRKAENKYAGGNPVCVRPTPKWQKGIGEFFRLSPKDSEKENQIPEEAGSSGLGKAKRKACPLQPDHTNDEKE
Experimental: To verify that the selected target binders bound to DGI-2, Elisa assays were performed with recombinant DGI-2. DGI-2 was subcloned and expressed using conventional methods as described below.
Protein yields were satisfactory, but most of protein was found in inclusion bodies. Next, DGI-2 was expressed using an in vitro translation system (Rapid Translation System RTS 5000, Roche Diagnostics GmbH, Mannheim Germany). For this system, the DGI-2 ORF was cloned into the pIVEX2.3-MCS vector (Roche Diagnostics) using restriction sites Nde I and Hind III, which were added to DGI-2 by PCR. […] The primers used for the PCR amplification were as follows: […]
(§1) For analysis of individual target binders, colonies were picked and phage prepared as described above using helper phage, M13KO7. Ninety-six-well microtiter plates were coated with 500 ng/well of specific target protein, 500 ng/well lactate dehydrogenase (LDH) irrelevant or non-specific target, 500 ng/well of positive control antibody raised against ETAG, and negative control of non-fat milk powder-PBS 2% at 4° C. overnight. Plates were then blocked with 350 microliters/well PBS containing 2% non-fat milk for 1 hr at room temperature. One hundred microliters per well of phage from isolated clones were added and plates were incubated at room temperature for 2 hr after centrifuging samples for 20 minutes at 3500 rpm at 4° C. The phage solution was then removed, and the wells were washed three times with PBS at room temperature. Antibody raised against M13 conjugated to horseradish peroxidase (Pharmacia) was diluted 1:3000 in PBS-Tween and added to each well (100 μl/well). Incubation was for 1 hr at room temperature, followed by washing with PBS-(0.5%) Tween 3 times as described. Color was developed by addition of ABTS solution (100 μl/well; Boehringer, Indianapolis, Ind.). Plates were analyzed at 405 nm. A clone was considered “positive” if the A405 of the well was ≧2-fold over background.

[1] = system: lactate dehydrogenase (LDH); assay: ELISA analysis of phage on LDH (irrelevant, non-specific target); assay type: binding; details: for LDH (OD): peptide binding to LDH polypeptide (non-specific binding), phage ELISA units read at 405 nm; for LDH: DGI-9 binders, LDH control irrelevant protein, ratio over background
Experimental: as §1

E-tag antibody = assay: ELISA analysis of phage on antibody raised against ETAG (positive control); details: peptide binding to E-tag antibody; phage ELISA units read at 405 nm
Experimental: as §1

Row | Substance | DGI-2 (OD) (DGI-2) | DGI-2/LDH (OD) (DGI-2) | LDH (OD) [1] | LDH [1] | ETAG (OD) (E-tag antibody)
1 | VTGTRFRGFAVACVRMGTWH (DGI-2-20F-PP-F2; listed as Escherichia coli) | 2.4 OD | 2.5 | 1.0 OD | – | 1.9 OD
2 | DRHRAFVAEGLDGFRHSTGV (DGI-2-20F-PP-D4; listed as Escherichia coli) | 2.6 OD | 2.3 | 1.1 OD | – | 44.0 OD
3 | YAMSSRECGIRNSGLILSMW (DGI-2-20F-PP-C9; listed as Escherichia coli) | 3.5 OD | 3.9 | 0.9 OD | – | 31.6 OD
4 | WWREWVDGSLRGGGGTVLKD (DGI-2-20R-3-A122; listed as Escherichia coli) | 9.6 OD | 9.4 | 1.0 OD | – | 15.1 OD
5 | VWAAWVEGSLLSPRQEPVRD (DGI-2-20R-4-G4; listed as Escherichia coli) | 10.2 OD | 9.8 | 1.0 OD | – | 13.6 OD
6 | RSRSSSGASGSMLRVQNHMVLGSWMVRQPMGSMTPFHGHG (DGI-2-40F-3-B5; listed as Escherichia coli) | 1.0 OD | 1.2 | 0.9 OD | – | 9.2 OD
7 | TIDVARRFGYGWWDLWLDGD (DGI-2-20R-3-C3; listed as Escherichia coli) | 7.9 OD | 7.0 | 1.1 OD | – | 20.2 OD
8 | TLVTEGNIKGSVKAHKDIGVWQLWWDWLSVTDSETVGRVSH (TLVTEGNKGSVKAHKDIGVWQLWWDWLSVTDSETVGRVSH; DGI-2-40F-3-D10; listed as Escherichia coli) [DGL-2-40F-3-D10] | 1.5 OD | 1.7 | 0.9 OD | – | 10.3 OD
9 | TPDRCLIYSSIQCLLEYSARRGSAD (DGI-2-20C-3-C65; listed as Escherichia coli) | 1.8 OD | 1.8 | 1.0 OD | – | 7.4 OD
10 | FRMWVQSCFWGQPGTGCGEG (DGI-2-20R-3-D2; listed as Escherichia coli) | 7.9 OD | 7.5 | 1.1 OD | – | 14.3 OD
11 | SRELGKWGRLWQDWSSGNFS (DGI-2-20R-3-C11; listed as Escherichia coli) | 8.6 OD | 8.3 | 1.0 OD | – | 18.9 OD
12 | WFTHVVEKIF [DGI-2-40F-3-A4] | 1.1 OD | 1.3 | 0.8 OD | – | 6.7 OD
13 | LLLPVRWRDAQPRSLLMEWI (DGI-2-20F-PP-F8; listed as Escherichia coli) | 2.0 OD | 1.9 | 1.1 OD | – | 7.6 OD
14 | SVTISTSCRTGCPAGYLRRD (DGI-2-20F-PP-D2; listed as Escherichia coli) | 2.2 OD | 3.1 | 0.7 OD | – | 30.8 OD
15 | VLCLE#ALGLSGLGWRVVVGP (VLCLEALGLSGLGWRVVVGP; DGI-2-20F-PP-G4; listed as Escherichia coli) | 2.5 OD | 2.2 | 1.1 OD | – | 25.6 OD
16 | LSLEGGWMWDTKGGDGGSAQ (DGI-2-20R-4-F93; listed as Escherichia coli) | 9.0 OD | 8.4 | 1.1 OD | – | 19.5 OD
17 | SLSLYWDAQVGCEVFWGYCV (DGI-2-20R-3-C10; listed as Escherichia coli) | 2.2 OD | 2.1 | 1.0 OD | – | 14.7 OD
18 | FLLQDFIMDAGSFVKPIGVG [DGI9-20M-4-A414] | – | – | – | 1.1 | –
19 | WDWSRFGAQLRGAILGRATG [DGI9-20M-4-A627] | – | – | – | 0.9 | –

More lines, main results first:

Row | DGI-2 (OD) (DGI-2) | DGI-2/LDH (OD) (DGI-2) | LDH (OD) [1] | LDH [1] | Substance | ETAG (OD) (E-tag antibody)
20 | 3.0 OD | 3.2 | 0.9 OD | – | SIILAGCVWVMPCGQNLGGV (DGI-2-20F-PP-C4; listed as Escherichia coli) | 36.1 OD
21 | 10.9 OD | 9.8 | 1.1 OD | – | VWRDWVNGTVGLRNREKPGV (DGI2-20R-3-A5; listed as Escherichia coli) [DGI-2-20R-3-A5] | 14.9 OD
22 | 8.7 OD | 8.4 | 1.0 OD | – | LWRRWSEGQLLGDGELRGDG (DGI-2-20R-3-B52; listed as Escherichia coli) | 15.8 OD
23 | 1.6 OD | 1.6 | 1.0 OD | – | RWSLPAYLCRFVSQASCNSR (DGI-2-20R-3-C12; listed as Escherichia coli) | 14.6 OD
24 | 6.7 OD | 6.4 | 1.0 OD | – | SWACGLLWPGECGSQVARRG (DGI-2-20R-3-D127; listed as Escherichia coli) | 15.4 OD
25 | 1.1 OD | 1.4 | 0.8 OD | – | RRTSADTDQLSRWEGAQAFSSLRSALSERLDSLRPGLPPS (DGI-2-40F-3-D9; listed as Escherichia coli) | 15.8 OD
26 | 7.1 OD | 6.3 | 1.1 OD | – | EGNWFCAVFRGFCVGDRGPE (DGI-2-20R-3-A1; listed as Escherichia coli) | 11.1 OD
27 | 2.7 OD | 2.5 | 1.1 OD | – | GSTRLRVTVRFCSETGTPGC (DGI-2-20F-PP-G6; listed as Escherichia coli) | 36.1 OD
28 | 6.1 OD | 6.6 | 0.9 OD | – | RERWGTAWNLWTEGVVDVRP (DGI-2-20F-3-B5; listed as Escherichia coli) | 16.4 OD
29 | 0.9 OD | 1.1 | 0.8 OD | – | CAYRWGLFRGPGRVDYDLQVVGIMMWPGPIPDRSSRGSVA (DGI-2-40F-3-A7; listed as Escherichia coli) | 8.7 OD
30 | 1.0 OD | 1.3 | 0.7 OD | – | PKDGAAFKGSDFIQGGQTVMERAPALWWRDGGGQWEAPST (DGI-2-40F-3-B72; listed as Escherichia coli) | 10.4 OD
31 | 7.9 OD | 6.2 | 1.3 OD | – | DRVARLATPTAGTMAAGSLGYERTVGCDSQDWFRCVVEGL (DGI-2-40F-3-D1044; listed as Escherichia coli) | 17.7 OD
32 | 1.6 OD | 1.8 | 0.9 OD | – | GAIRLSGAAWTASRTGGRAS (DGI-2-20F-PP-E7; listed as Escherichia coli) | 21.5 OD
33 | 1.6 OD | 1.9 | 0.8 OD | – | RGVNSDMPRLYICRADGQGQ (DGI-2-20F-PP-H6; listed as Escherichia coli) | 18.9 OD
34 | 1.7 OD | 2.2 | 0.8 OD | – | HSGNRQSGSRRTHLLNIFCSSDTFVFPGWSAYLSRVCPGD (DGI-2-40F-3-B122; listed as Escherichia coli) | 11.0 OD
35 | 2.5 OD | 2.0 | 1.2 OD | – | LGRIVRPCVVRLCGGV##GV (LGRIVRPCVVRLCGGVGV; DGI-2-20F-PP-G10; listed as Escherichia coli) | 30.1 OD
36 | – | – | – | 0.9 | SRLALSSQHGLSLVAGRRRG [DGI9-20M-4-A12] | –
37 | – | – | – | 1.0 | MAGFRGSGLSGYSEARLPRV [DGI9-20M-4-E3] | –
